According to paper PMC5797045, “Characterization of CDK(5) inhibitor, 20-223 (aka CP668863) for colorectal cancer therapy” (Oncotarget, 2017):

How the values were obtained:
[1] = target: T1, CDK2 (Homo sapiens, UniProt P24941); assay: cell-free kinase assay, 10-point dose response; assay type: biochemical
T1 construct: with Cyclin E

[2] = target: T2, CDK5 (Homo sapiens, UniProt Q00535); assay: cell-free kinase assay, 10-point dose response; assay type: biochemical
T2 construct: with p35
T2 sequence (Q00535 whole entry): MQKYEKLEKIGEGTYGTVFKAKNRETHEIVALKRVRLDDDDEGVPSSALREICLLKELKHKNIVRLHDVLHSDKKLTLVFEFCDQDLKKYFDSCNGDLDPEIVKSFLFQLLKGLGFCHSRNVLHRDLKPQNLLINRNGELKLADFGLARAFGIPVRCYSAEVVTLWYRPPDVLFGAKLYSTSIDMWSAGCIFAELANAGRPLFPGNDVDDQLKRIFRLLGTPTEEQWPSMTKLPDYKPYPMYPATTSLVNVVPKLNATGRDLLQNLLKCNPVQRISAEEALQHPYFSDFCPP
T2 sequence (Q15078 2-307 partner): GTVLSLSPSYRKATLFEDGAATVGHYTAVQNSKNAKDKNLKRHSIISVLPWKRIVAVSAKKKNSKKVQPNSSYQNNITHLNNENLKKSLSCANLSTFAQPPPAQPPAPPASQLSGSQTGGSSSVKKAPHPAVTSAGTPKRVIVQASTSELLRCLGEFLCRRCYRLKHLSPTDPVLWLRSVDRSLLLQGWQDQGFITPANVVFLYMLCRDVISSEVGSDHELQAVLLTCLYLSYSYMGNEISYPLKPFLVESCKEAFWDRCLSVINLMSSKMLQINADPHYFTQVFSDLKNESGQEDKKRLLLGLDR

Structure (SMILES): O=C(Cc1ccc2ccccc2c1)Nc1cc(C2CCC2)[nH]n1 [20-223]
- IC50 [1]: 6 nM
- IC50 [2]: 8.8 nM
